Values quoted from earlier work in patent US10144908B2, “Liquid soap having enhanced antibacterial activity” (Conopco, Inc., priority 2013, dated 2018).

Details: in water at 25° C.

O=C([O-])CC(O)(CC(=O)[O-])C(=O)[O-].[Ag+].[Ag+].[Ag+] [Silver citrate]
Ksp: 2.5e-16 mol/L
